# Measured values reported in patent publication US20110136791A1, “COMBINATION OF A NICOTINIC RECEPTOR PARTIAL AGONIST AND OF AN ACETYLCHOLINESTERASE INHIBITOR, PHARMACEUTICAL COMPOSITION CONTAINING SAME AND USE THEREOF IN THE TREATMENT OF COGNITIVE DISORDERS” (priority 2008, published 2011).
# Key:
# [1] = tested on: rats with no deficit; test: Test for spontaneous forgetting in rats with no deficit (object recognition test, visual episodic memory); type: in vivo; conditions: rat; for Exploration time, familiar object (recalling session) / Exploration time, new object (recalling session) / Recognition index (new/(new + familiar)): p.o. 60 min before each session, 24 h forgetting period, group 2: 0.1 mg/kg, group 3: rivastigmine 0.03 mg/kg, group 4: 0.01 + 0.03 mg/kg; for Exploration time, familiar object (recalling session) / Exploration time, new object (recalling session): 3 min test; for Discrimination between the familiar object and the new object during the recalling session (in words): p.o., inactive doses, 24 hours after the learning session
# Description: 1. Test for Spontaneous Forgetting in Rats with No Deficit
# 1.) Accustomization phase: In this protocol, the animals are first subjected to a session of accustomization to the environmental context (a wooden chamber of 65×45×45 cm) for a period of 2 minutes. The time spent in active locomotion is measured using a timer. 2.) Learning phase: 24 hours later, two exactly identical objects (either metal triangles or pyramids made of Lego) are placed in the experimental device. Each rat is placed in the middle of the chamber, the nose against the wall opposite that where the objects/stimulus are located. The pairs of objects presented are alternated equitably in each of the groups of rats. The animals are left in the experimental chamber until they reach a period of exploration of the two objects equal to 20 seconds, out of a maximum period of 3 minutes. As soon as the 20 seconds of exploration are reached, the rat is put back in its housing cage. […] 3.) Recalling session: The recalling session takes place after a forgetting period of 24 h for all the groups. The rats are confronted with a pair of objects consisting of the object encountered during the learning phase and an unknown object. The rats are placed in the same way as for the learning session.
# This test lasts 3 minutes, during which the time spent exploring each of the 2 objects is measured.
# Conversely, if the animal has forgotten the familiar object, the times spent exploring the new object and the familiar object will be similar.
# (§1) For the learning and recalling sessions, the exploring of an object is counted if the animal orients its nose toward the object, inside a perimeter of 2 centimeters around said object, or if it touches it with its nose or with its feet. If the rat moves around the object or sits on it, these behaviors are not considered to be exploratory.
# (§2) The raw data are expressed in seconds.
# The test compounds are administered orally 60 minutes (rat study) before each of the three sessions of the protocol.
# Four experimental groups are formed, said groups receiving, respectively:
# During the recalling session, 24 hours after the learning session, the times spent exploring the two objects, expressed in seconds, and the recognition index (time spent exploring the new object/total time spent exploring the new and familiar objects) are measured. • Similar exploration times with respect to the familiar object and to the new object reflect the fact that the familiar object has been forgotten, and therefore that there is a visual episodic memory deficit.
# Conversely, a longer exploration time for the new object than for the familiar object reflects significant recollection of the familiar object and therefore an improvement in visual episodic memory. • A relatively low recognition index reflects the fact that the familiar object has been forgotten, and therefore that there is a visual episodic memory deficit.
# Conversely, a high recognition index reflects significant recollection of the familiar object, and therefore an improvement in visual episodic memory.
# The above doses are expressed in base equivalent.
# [2] = tested on: CD1-strain mice injected ICV with Aβ25-35 peptide; test: Test of short-term visual episodic memory deficit induced by ICV injections of β-amyloid protein 25-35 in mice (object recognition); type: in vivo, mouse; conditions: Aβ25-35 mice; for Effect on short-term recall performance levels (in words): 0.1 mg/kg each, intraperitoneally; for Exploration time, familiar object (recalling session) / Exploration time, new object (recalling session) / Recognition index (new/(new + familiar)): intraperitoneally 60 min before each session, 1 hour forgetting period, each active 0.1 mg/kg (base equivalent); for Exploration time, familiar object (recalling session) / Exploration time, new object (recalling session): 5 min test
# Description: 2. Test of short-term visual episodic memory deficit induced by intracerebroventricular (ICV) injections of β-amyloid protein 25-35 in mice
# The Aβ25-35 peptide fragment contains the 11 amino acids necessary and sufficient for inducing neurological toxicity.
# The Aβ25-35 amyloid peptide is dissolved in distilled water at a final concentration of 3 mg/ml. It is then incubated at 37° C. for 4 days in order to form aggregates of toxic peptide. The control animals receive the scrambled peptide, consisting of the same amino acids, but organized according to a random sequence.
# The peptide is injected intracerebroventricularly into CD1-strain mice anaesthetized with isoflurane. A microsyringe fitted with a 28-gauge needle 3 mm long is used. The needle is inserted unilaterally, 1 mm to the right of the central line equidistant from each eye and at an equal distance between the axis of the eyes and the axis of the ears. 3 μl of the aggregated peptide are injected over a period of one minute. The mice are used for the behavioral tests between 6 and 14 days after the intracerebral injection.
# 1.) Accustomization phase: In this protocol, the mice are first subjected to a session of accustomization to the environmental context (light grey PVC chain of 52×52×40 cm, illumination at 6 Lux) for a period of 10 minutes. The time spent in active locomotion is measured using a timer. 2.) Learning phase: 24 hours later, two exactly identical objects (either metal triangles (5.5×3.3 cm), or a square red Lego brick (3.0×3.0×3.0 cm)) are placed in the experimental device. Each mouse is placed in the middle of the chamber, the nose against the wall opposite that where the objects/stimulus are located. The pairs of objects presented are alternated equitably in each of the groups of mice. The animals are left in the experimental chamber until they reach a time spent exploring the two objects equal to 10 seconds, out of a maximum period of 3 minutes. As soon as the 10 seconds of exploration are reached, the mouse is put back in its housing cage.
# 3.) Recalling session: The recalling session takes place after a forgetting period of 1 hour for all the groups. […] The mice are confronted with a pair of objects consisting of the object encountered during the learning phase and an unknown object. The mice are placed in the chamber in the same way as for the learning session.
# This test lasts 5 minutes, during which the time spent exploring each of the 2 objects is measured.
# as §1, with “exploration” for “exploring”, “cm” for “centimeters”, “or” for “or with”
# as §2
# The compounds to be tested are administered intraperitoneally, 60 minutes before each of the three sessions of the protocol.
# Five experimental groups were formed, receiving, respectively:
# During the recalling session, i.e. 1 hour after the learning session, the times spent exploring the two objects, expressed in seconds, are measured. • Similar exploration times with respect to the familiar object and to the new object reflect the fact that the familiar object has been forgotten, and therefore that there is complete abolition of the short-term recall performance levels. • Conversely, a longer exploration time for the new object compared with the familiar object reflects a good short-term memory recall performance level.
smiles,measurement,setting,value
CCN(C)C(=O)Oc1cccc([C@H](C)N(C)C)c1 [rivastigmine],"Exploration time, familiar object (recalling session)",[1],10.10 ± 1.56 s
same,"Exploration time, new object (recalling session)",[1],9.42 ± 1.86 s
same,Recognition index (new/(new + familiar)),[1],0.48 ± 0.05
same,Discrimination between the familiar object and the new object during the recalling session (in words),[1],no significant discrimination between the familiar object and the new object
"O=C(O)/C=C/C(=O)O.O=C(Oc1ccc(Br)cc1)N1CCN2CCC1CC2 [4-bromophenyl 1,4-diazabicyclo[3.2.2]nonane-4-carboxylate (2E)-but-2-enedioate]","Exploration time, familiar object (recalling session)",[1],10.47 ± 0.84 s
same,"Exploration time, new object (recalling session)",[1],11.10 ± 1.44 s
same,Recognition index (new/(new + familiar)),[1],0.50 ± 0.04
same,Discrimination between the familiar object and the new object during the recalling session (in words),[1],no significant discrimination between the familiar object and the new object
same,Effect on short-term recall performance levels (in words),[2],do not result in an improvement in performance levels
same,"Exploration time, familiar object (recalling session)",[2],4.30 ± 0.70 s
same,"Exploration time, new object (recalling session)",[2],6.30 ± 0.60 s
same,Recognition index (new/(new + familiar)),[2],0.60 ± 0.04
COc1cc2c(cc1OC)C(=O)C(CC1CCN(Cc3ccccc3)CC1)C2 (stereo not shown) [donepezil],Effect on short-term recall performance levels (in words),[2],do not result in an improvement in performance levels
same,"Exploration time, familiar object (recalling session)",[2],4.60 ± 0.70 s
same,"Exploration time, new object (recalling session)",[2],5.00 ± 0.80 s
same,Recognition index (new/(new + familiar)),[2],0.52 ± 0.05
